These results are taken from patent US20260234112A1, “COMPOUNDS, COMPOSITIONS, AND METHODS OF USE THEREOF” (Type6 Therapeutics, Inc., priority 2023, published 2026).

The assay has as its target T1, Cdk2(2-298) (Homo sapiens, UniProt P24941).
T1 construct: Biotinylated N-terminal avi-tagged Cdk2(2-298) or Cdk1(1-297) was immobilized
Put plainly: Surface Plasmon Resonance (SPR) compound interaction, Biacore 8K. The conditions noted are these: single-cycle kinetics (SCK, "S"), dissociation 1800 sec, read-out: Activity rating (KD). The format is binding. The gist of the method:
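Biotinylated N-terminal avi-tagged Cdk2(2-298) captured on streptavidin chip at 2500–3000 RU in 25 mM HEPES, 150 mM NaCl, 0.05% Tween20, pH 7.5, 1% DMSO final. Eight 3-fold compound concentrations injected 120 sec at 30 μl/min, multi- or single-cycle kinetics; dissociation 180 sec (MCK) or 1800 sec (SCK).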
For orientation: Kd means the free concentration of one partner at which half of the binding sites on the other are occupied at equilibrium, for simple one-to-one binding. Regarding `N[C@H]1CC[C@H](Nc2nccc(-c3cnccc3Oc3ccc(NS(=O)(=O)c4ccc(CO)cc4F)c(F)c3)n2)CC1` [Compound 82, N-82[4-[[3-[2-(1r,4r)[(4-Aminocyclohexyl)amino]pyrimidin-4-yl]-4-pyridyl]oxy]-2-fluorophenyl] 2-fluoro-4-(hydroxymethyl)benzenesulfonamide], the equilibrium dissociation constant (Kd) was 100 to 1000 nM.

`N[C@H]1CC[C@H](Nc2nccc(-c3cnccc3Oc3ccc(NS(=O)(=O)c4ccc(CCO)cc4F)cc3F)n2)CC1` [Compound 83, N-[4-[[3-[2-(1r,4r)[(4-Aminocyclohexyl)amino]pyrimidin-4-yl]-4-pyridyl]oxy]-3-fluorophenyl] 2-fluoro-4-(2-hydroxyethyl)benzenesulfonamide]: the dissociation constant Kd fell in the range of 100 to 1000 nM.

Turning to `N[C@H]1CC[C@H](Nc2nccc(-c3cnccc3Oc3ccc(NS(=O)(=O)c4ccc(CCO)cc4F)c(F)c3)n2)CC1` [Compound 84, N-[4-[[3-[2-(1r,4r)[(4-Aminocyclohexyl)amino]pyrimidin-4-yl]-4-pyridyl]oxy]-2-fluorophenyl] 2-fluoro-4-(2-hydroxyethyl)benzenesulfonamide], the dissociation constant Kd is 100 to 1000 nM.

For `CN(C)CCNc1nccc(-c2cnccc2Oc2ccc(NS(=O)(=O)c3ccccc3Cl)cc2F)n1` [Compound 85], the Kd lay in the range of 100 to 1000 nM.

Consider `O=S(=O)(Nc1ccc(Oc2ccncc2-c2ccnc(NCCN3CCOCC3)n2)c(F)c1)c1ccccc1Cl` [Compound 86], for which the Kd was 100 to 1000 nM.

For `O=S(=O)(Nc1ccc(Oc2ccncc2-c2ccnc(NCCOCCO)n2)c(F)c1)c1ccccc1Cl` [Compound 87], the equilibrium dissociation constant (Kd) is 100 to 1000 nM.

For `O=S(=O)(Nc1ccc(Oc2ccncc2-c2ccnc(NC3COC3)n2)c(F)c1)c1ccccc1Cl` [Compound 88], the dissociation constant (Kd) was at most 10 nM.

For the molecule `O=S(=O)(Nc1ccc(Oc2ccncc2-c2ccnc(NC3COC3)n2)c(F)c1)c1ccccc1Cl` [Compound 89], the Kd lay within 11 to 100 nM.

Turning to `O=S(=O)(Nc1ccc(Oc2ccncc2-c2ccnc(NCCN3CCCC3)n2)c(F)c1)c1ccccc1Cl` [Compound 90], the Kd lay within 100 to 1000 nM.

For `COCCOCCNc1nccc(-c2cnccc2Oc2ccc(NS(=O)(=O)c3ccccc3Cl)cc2F)n1` [Compound 91], the Kd lay within 100 to 1000 nM.

For `O=S(=O)(Nc1ccc(Oc2ccncc2-c2ccnc(NC3CC4(CNC4)C3)n2)c(F)c1)c1ccccc1Cl` [Compound 92], the Kd was at most 10 nM.

Regarding `CN1CC[C@H](Nc2nccc(-c3cnccc3Oc3ccc(NS(=O)(=O)c4ccccc4Cl)cc3F)n2)C1` [Compound 93], the Kd fell in the range of 100 to 1000 nM.

With `O=S(=O)(Nc1ccc(Oc2ccncc2-c2ccnc(NCCN3CCC3)n2)c(F)c1)c1ccccc1Cl` [Compound 94], the Kd was in the range of 100 to 1000 nM.

In the case of `O=S(=O)(Nc1ccc(Oc2ccncc2-c2ccnc(NCCn3ccnc3)n2)c(F)c1)c1ccccc1Cl` [Compound 95], the Kd fell in the range of 11 to 100 nM.

Regarding `O=S(=O)(Nc1ccc(Oc2ccncc2-c2ccnc(NCCc3ncc[nH]3)n2)c(F)c1)c1ccccc1Cl` [Compound 96], the Kd lay within 100 to 1000 nM.

Consider `O=S(=O)(Nc1ccc(Oc2ccncc2-c2ccnc(NCCNCCO)n2)c(F)c1)c1ccccc1Cl` [Compound 97], for which the equilibrium dissociation constant (Kd) fell in the range of 100 to 1000 nM.

`O=S(=O)(Nc1ccc(Oc2ccncc2-c2ccnc(NC3CNC3)n2)c(F)c1)c1ccccc1Cl` [Compound 98]: the dissociation constant (Kd) fell in the range of 11 to 100 nM.

Take `CN1CC2(CC(Nc3nccc(-c4cnccc4Oc4ccc(NS(=O)(=O)c5ccccc5Cl)cc4F)n3)C2)C1` [Compound 99]: the dissociation constant (Kd) is 100 to 1000 nM.

In the case of `CN(CCNc1nccc(-c2cnccc2Oc2ccc(NS(=O)(=O)c3ccccc3Cl)cc2F)n1)S(C)(=O)=O` [Compound 100], the Kd was at most 10 nM.

Take `O=S(=O)(Nc1ccc(Oc2ccncc2-c2ccnc(NC3CN(C4COC4)C3)n2)c(F)c1)c1ccccc1Cl` [Compound 101]: the Kd is 11 to 100 nM.

For `CN1CC(Nc2nccc(-c3cnccc3Oc3ccc(NS(=O)(=O)c4ccccc4Cl)cc3F)n2)C1` [Compound 102], the equilibrium dissociation constant (Kd) was 11 to 100 nM.

Consider `CS(=O)(=O)N1CCC[C@H](Nc2nccc(-c3cnccc3Oc3ccc(NS(=O)(=O)c4ccccc4Cl)cc3F)n2)C1` [Compound 103], for which the Kd lay within 100 to 1000 nM.

With `COCCNCCNc1nccc(-c2cnccc2Oc2ccc(NS(=O)(=O)c3ccccc3Cl)cc2F)n1` [Compound 104], the equilibrium dissociation constant (Kd) was in the range of 100 to 1000 nM.

Consider `COCCN1CC(Nc2nccc(-c3cnccc3Oc3ccc(NS(=O)(=O)c4ccccc4Cl)cc3F)n2)C1` [Compound 105], for which the dissociation constant Kd was 11 to 100 nM.

`O=S(=O)(Nc1ccc(Oc2ccncc2-c2ccnc(NC3CN(CCO)C3)n2)c(F)c1)c1ccccc1Cl` [Compound 106]: the dissociation constant (Kd) fell in the range of 100 to 1000 nM.

In the case of `COCCOCCN1CC(Nc2nccc(-c3cnccc3Oc3ccc(NS(=O)(=O)c4ccccc4Cl)cc3F)n2)C1` [Compound 107], the dissociation constant (Kd) was 100 to 1000 nM.

For `N[C@H]1CC[C@H](Nc2nccc(-c3cccnc3Sc3ccc(NS(=O)(=O)c4ccccc4Cl)cc3F)n2)CC1` [Compound 108, N-(4-((3-(2-(((1r,4r)-4-Aminocyclohexyl)amino)pyrimidin-4-yl)pyridin-2-yl)thio)-3-fluorophenyl) 2-chlorobenzenesulfonamide], the equilibrium dissociation constant (Kd) is at most 10 nM.

Regarding `O=S(=O)(Nc1ccc(Sc2ncccc2-c2ccnc(N[C@H]3CCCNC3)n2)c(F)c1)c1ccccc1Cl` [Compound 109, N-[3-Fluoro-4-[[3-[2-[[(3S)-3-piperidyl]amino]pyrimidin-4-yl]-2-pyridyl]thio]phenyl] 2-chlorobenzenesulfonamide], the Kd is at most 10 nM.

In the case of `N[C@H]1CC[C@H](Nc2nccc(-c3cccnc3Sc3ccc(NS(=O)(=O)c4ccccc4)cc3F)n2)CC1` [Compound 110, N-(4-((3-(2-(((1r,4r)-4-Aminocyclohexyl)amino)pyrimidin-4-yl)pyridin-2-yl)thio)-3-fluorophenyl) benzenesulfonamide], the equilibrium dissociation constant (Kd) is 11 to 100 nM.

With `N[C@H]1CC[C@H](Nc2nccc(-c3cccnc3Sc3ccc(NS(=O)(=O)c4cccc5ccccc45)cc3F)n2)CC1` [Compound 111, N-(4-((3-(2-(((1r,4r)-4-Aminocyclohexyl)amino)pyrimidin-4-yl)pyridin-2-yl)thio)-3-fluorophenyl) naphthalene-1-sulfonamide], the Kd was 11 to 100 nM.

For `O=S(=O)(Nc1ccc(Sc2ncccc2-c2ccnc(N[C@H]3CCCNC3)n2)c(F)c1)c1cccc2ccccc12` [Compound 113, N-[3-fluoro-4-[[3-[2-[[(3S)-3-piperidyl]amino]pyrimidin-4-yl]-2-pyridyl]sulfanyl]phenyl] naphthalene-1-sulfonamide], the Kd lay in the range of 100 to 1000 nM.

As to `N[C@H]1CC[C@H](Nc2nccc(-c3cnccc3Sc3ccc(NS(=O)(=O)c4ccccc4Cl)cc3F)n2)CC1` [Compound 116, N-[4-[[3-[2-[((1r,4r)4 aminocyclohexyl)amino]pyrimidin-4-yl]-4-pyridyl]thio]-3-fluoro-phenyl] 2-chlorobenzenesulfonamide], the Kd is at most 10 nM.

For the molecule `N[C@H]1CC[C@H](Nc2nccc(-c3cnccc3Sc3ccc(NS(=O)(=O)c4ccccc4)cc3F)n2)CC1` [Compound 117, N-[4-(1r,4r)[[3-[2-[(4-aminocyclohexyl)amino]pyrimidin-4-yl]-4-pyridyl]sulfanyl]-3-fluorophenyl] benzenesulfonamide], the equilibrium dissociation constant (Kd) is 11 to 100 nM.
